US5545640A, “Protease inhibiting succinic acid derivatives” (Bio-Mega/Boehringer Ingeleheim Research Inc., priority 1995, dated 1996)
Like-named read-outs stand apart in the source and are kept apart here.

What was measured:
HIV protease = molecular target: T1, HIV protease (Human immunodeficiency virus type 1 group M subtype B, UniProt P04585); experiment: biochemical; settings: read-out: IC50 (concentration causing 50% inhibition of HIV protease)
T1 construct: an HIV-encoded enzyme known as HIV protease
From the text: The procedure is based on the capacity of the test compound to inhibit enzymatic cleavage by HIV protease of a decapeptide (the substrate) having an amino acid sequence which includes a known HIV protease cleavage site of a HIV polyprotein; see H. G. Krausslich et al., Proc. Natl. Acad. Sci. USA, 86, 807 (1989).
Anderson, S. Rakhit and C. Yoakim in the European patent application 443 560, published Aug. 28, 1991.

[1] = tested on: HIV (H9/HTLV-IIIB stock) in C8166 cells; experiment: Cell culture assay: inhibition of syncytia formation in HIV-infected C8166 cells (antiviral, anti-HIV effect); assay type: cell-based, HIV (HTLV-IIIB); human T4 cell line; settings: read-out: EC50 (concentration causing 50% inhibition of syncytia formation)
From the text: Typical of such procedures are those described by S. Harada and N. Yamamoto, Jpn. J. Cancer Res. (Gann), 76, 432 (1985), and S. Harada et al., Science, 229, 563 (1985). An assay based on the latter procedures is described in the examples hereinafter.
In addition, Tables 1 to 8 list the results for exemplified compounds of formula 1 when assayed for antiviral (anti-HIV) effects according to the following protocol which is based on a cell culture assay previously described by Harada et al., supra. Transformed cells are used because of the rapidity with which HIV will replicate in the cells.
1. The test compound is dissolved in dimethylsulfoxide to a concentration of 5 mg/mL. The resultant solution .can be stored at 4° until use.
2. The resultant solution is diluted in RPMI 1640 (Gibco Laboratories, St. Lawrence, Mass., USA) to four times (4×) the final concentration which is to be tested. Once diluted in RPMI 1640, the solution is used in the cell culture assay within 4 h.
3. The latter solution (50 μL) is added to triplicate wells of a 96 well flat bottomed microtiter plate. RPMI (50 μL) also is added to control wells.
4. C8166 cells (5×10^4) in 50 μL of HEPES-buffered RPMI 1640 (pH=7.2), 10% heat inactivated fetal calf serum (FCS), […] gentamicin (complete media) are added to all wells.
5. Fifty times TCID50 of H9/HTLV-IIIB stock (stored in liquid nitrogen as cell culture supernatant in 50% FCS) in 100 μL of complete media is added to all wells. The infectious titer of the virus stocks is as previously determined by end point dilution on C8166 cells. The titer of stocks are stable for 6-12 months when stored at -193°.
6. Microtiter plates are then placed on level shelves of a 37°, 5% CO2 humidified incubator for 72 h.
7. Plates are then removed and centers of syncytia are counted in each well by low power phase contrast light microscopy. […] Control wells should have between 25 and 75 centers of syncytia per well.
8. Percent inhibition of syncytia formation is calculated by the formula: [formula]
The concentration of the test compound which causes a 50% inhibition of syncytia formation, i.e. the EC50, is determined by using the technique of serial dilution of the working solution at step 3 and graphically plotting the observed percent inhibition of syncytia formation against the various concentrations of the test compound.
In the following tables, assay results are listed for the exemplified compounds from the aforementioned recombinant HIV protease HPLC assay under the heading IC50 (nM) and from the cell culture assay under the heading EC50 (nM). Note that for some of the compounds listed in tables, the EC50 's have not been determined (ND).

[2] = recombinant HIV protease, decapeptide substrate, HPLC assay
[3] = Human immunodeficiency virus 1, C8166 cells, H9/HTLV-IIIB, 50 times TCID50, 72 h, 37°

| SMILES | IC50 (HIV protease; [2]) [nM] | EC50 [1, 3] [nM] | EC50 ([1]; Human immunodeficiency virus 1, IIIB, C8166, 72 h) [nM] | IC50 (HIV protease) [nM] |
| --- | --- | --- | --- | --- |
| Cc1cccc(C)c1NC(=O)C[C@@H](C(=O)NC[C@@H](O)[C@H](Cc1ccccc1)NC(=O)[C@@H](NC(=O)c1ccc2ccccc2n1)[C@@H](C)O)C(C)(C)C [Entry 46] | 2 | 30 |  |  |
| CCC(CC)NC(=O)C[C@@H](C(=O)NC[C@@H](O)[C@H](Cc1ccccc1)NC(=O)[C@H](CC(N)=O)NC(=O)OCc1ccccc1)C(C)(C)C [Entry 20] | 5 | 480 |  |  |
| CCC(CC)NC(=O)C[C@@H](C(=O)NC[C@@H](O)[C@H](Cc1ccccc1)NC(=O)[C@H](CC#N)NC(=O)c1ccc2ccccc2n1)C(C)(C)C [Entry 37] | 3 | 34 |  |  |
| CCC(CC)NC(=O)C[C@@H](C(=O)NC[C@@H](O)[C@H](Cc1ccccc1)NC(=O)[C@H](CC(N)=O)NC(=O)c1cc(OC)c2ccccc2n1)C(C)(C)C [Entry 25] | 4 | 164 |  |  |
| CCC(CC)NC(=O)CC(C(=O)NC[C@@H](O)[C@H](Cc1ccccc1)NC(=O)[C@@H](NC(=O)OCc1ccccc1)C(C)(C)C)C(C)(C)C (stereo partly drawn) [Entry 53] | 6 | 90 |  |  |
| CCC(CC)NC(=O)C[C@@H](C(=O)NC[C@@H](O)[C@H](Cc1ccccc1)NC(=O)c1ccc(Cl)cc1Cl)C(C)(C)C [Entry 66] | 4.7 | 680 |  |  |
| CCC(CC)NC(=O)C[C@@H](C(=O)NC[C@@H](O)[C@H](Cc1ccc(O)cc1)NC(=O)COc1c(C)cccc1C)C(C)(C)C [Entry 63, N^1-(1-ethylpropyl)-N^4 -{3(S)-{{(2,6-dimethylphenoxy)-acetyl}amino}-2(R)-hydroxy-4-(4-hydroxyphenyl)butyl}-3(R)-tert-butylbutanediamide] | 3.1 | 110 |  |  |
| CCC(CC)NC(=O)C[C@@H](C(=O)NC[C@@H](O)[C@H](Cc1ccccc1)NC(=O)c1cccc(N)c1C)C(C)(C)C [Entry 69] | 5.3 | 258 |  |  |
| CCC(CC)NC(=O)C[C@@H](C(=O)NC[C@@H](O)[C@H](Cc1ccccc1)NC(=O)c1ccc(Cl)cc1)C(C)(C)C [Entry 65] | 8.7 | 845 |  |  |
| CCC(CC)NC(=O)C[C@@H](C(=O)NC[C@@H](O)[C@H](Cc1ccccc1)NC(=O)[C@H](CC(N)=O)NC(=O)c1cccc2cccnc12)C(C)(C)C [Entry 10] | 15 | 270 |  |  |
| CCC(CC)NC(=O)C[C@@H](C(=O)NC[C@@H](O)[C@H](Cc1ccccc1)NC(=O)[C@@H](NC(=O)c1ccc2ccccc2n1)[C@@H](C)O)C(C)(C)C [Entry 23, N^1-(1-Ethylpropyl)-N^4 -{3(S)-{[N-(2-quinolylcarbonyl)threonyl]amino}-2(R)-hydroxy-4-phenylbutyl}-3(R)-tert-butylbutanediamide] | 4 | 52 |  |  |
| CCc1cccc(CC)c1NC(=O)C[C@@H](C(=O)NC[C@@H](O)[C@H](Cc1ccccc1)NC(=O)[C@@H](NC(=O)c1ccc2ccccc2n1)[C@@H](C)O)C(C)(C)C [Entry 43] | 5 | 30 |  |  |
| CCC(CC)NC(=O)C[C@@H](C(=O)NC[C@@H](O)[C@H](Cc1ccccc1)NC(=O)c1ccccc1C)C(C)(C)C [Entry 68] | 6.4 | 375 |  |  |
| CCC(CC)NC(=O)C[C@@H](C(=O)NC[C@@H](O)[C@H](Cc1ccccc1)NC(=O)[C@@H](NC(=O)c1ccc2ccccc2n1)C(C)(C)C)C(C)(C)C [Entry 27] | 4 | 83 |  |  |
| CCC(CC)NC(=O)C[C@@H](C(=O)NC[C@@H](O)[C@H](Cc1ccccc1)NC(=O)[C@H](CC(N)=O)NC(=O)c1cc2ccccc2cn1)C(C)(C)C [Entry 18] | 5 | 220 |  |  |
| CCCC(CCC)NC(=O)C[C@@H](C(=O)NC[C@@H](O)[C@H](Cc1ccccc1)NC(=O)[C@H](CC(N)=O)NC(=O)c1ccc2ccccc2n1)C(C)(C)C [Entry 44] | 4 | 57 |  |  |
| CCC(CC)NC(=O)C[C@@H](C(=O)NC[C@@H](O)[C@H](Cc1ccccc1)NC(=O)[C@H](CC(N)=O)NC(=O)c1ccc2ccccc2n1)C(C)(C)C [Entry 35] | 3 | 130 |  |  |

| SMILES | IC50 (HIV protease; [2]) [nM] | EC50 [1, 3] [nM] | EC50 ([1]; Human immunodeficiency virus 1, IIIB, C8166, 72 h) [nM] | IC50 (HIV protease) [nM] |
| --- | --- | --- | --- | --- |
| CCC(CC)NC(=O)C[C@@H](C(=O)NC[C@@H](O)[C@H](Cc1ccccc1)NC(=O)[C@H](CO)NC(=O)c1ccc2ccccc2n1)C(C)(C)C [Entry 6] | 27 | 420 |  |  |
| CCC(CC)OC(=O)C[C@@H](C(=O)NC[C@@H](O)[C@H](Cc1ccccc1)NC(=O)[C@H](CC(N)=O)NC(=O)c1ccc2ccccc2n1)C(C)(C)C [Entry 59, 3(R)-tert-butyl-4-{2(R)-hydroxy-4-phenyl-3(S)-{[N-(2-quinolylcarbonyl)asparaginyl]-amino}butylamino}-4-oxobutyric acid 1-ethylpropyl ester] | 7 | 570 |  |  |
| CCC(CC)NC(=O)CC(C(=O)NC[C@@H](O)[C@H](Cc1ccccc1)NC(=O)[C@H](CC(N)=O)NC(=O)OCc1ccccc1)C(C)(C)C (stereo partly drawn) [Entry 49] | 13 |  | 1300 |  |
| CCC(CC)NC(=O)C[C@@H](C(=O)NC[C@@H](O)[C@H](Cc1ccccc1)NC(=O)[C@@H](NC(=O)OCc1ccccc1)C(C)C)C(C)(C)C [Entry 32] | 3 | 63 |  |  |
| CCC(CC)NC(=O)C[C@@H](C(=O)NC[C@@H](O)[C@H](Cc1ccccc1)NC(=O)[C@H](CC(N)=O)NC(=O)c1cnc2ccccc2n1)C(C)(C)C [Entry 36] | 3 | 260 |  |  |
| Cc1cccc(C)c1NC(=O)C[C@@H](C(=O)NC[C@@H](O)[C@H](Cc1ccccc1)NC(=O)OCc1ccccc1)C(C)(C)C [Entry 72] | 3 | 360 |  |  |
| CCC(CC)NC(=O)C[C@@H](C(=O)NC[C@@H](O)[C@H](Cc1ccccc1)NC(=O)[C@H](C(C)C)N(C)C(=O)OCc1ccccc1)C(C)(C)C [Entry 13] | 12 | 1900 |  |  |
| CCC(CC)NC(=O)C[C@@H](C(=O)NC[C@@H](O)[C@H](Cc1ccccc1)NC(=O)[C@@H](NC(=O)OCc1ccccc1)C(C)(C)C)C(C)(C)C [Entry 34] | 3 | 65 |  |  |
| CCC(CC)NC(=O)C[C@@H](C(=O)NC[C@@H](O)[C@H](Cc1ccccc1)NC(=O)[C@@H](NC(=O)c1ccc2ccccc2n1)C(C)C)C(C)(C)C [Entry 29] |  | 52 |  | 3 |
| CCC(CC)NC(=O)C[C@@H](C(=O)NC[C@@H](O)[C@H](Cc1ccccc1)NC(=O)[C@H](CC(N)=O)NC(=O)CCc1ccccc1)C(C)(C)C [Entry 9] | 15 | 1900 |  |  |
| CC(C)[C@H](NC(=O)OCc1ccccc1)C(=O)N[C@@H](Cc1ccccc1)[C@H](O)CNC(=O)C(CC(=O)NC(C)(C)C)C(C)(C)C (stereo partly drawn) [Entry 51] |  | 200 |  | 7 |
| CCC(CC)NC(=O)C[C@@H](C(=O)NC[C@@H](O)[C@H](Cc1ccccc1)NC(=O)c1cc2ccccc2n1C)C(C)(C)C [Entry 64] | 8.9 | 640 |  |  |
| CCC(CC)NC(=O)C[C@@H](C(=O)NC[C@@H](O)[C@H](Cc1ccccc1)NC(=O)[C@H](CC(N)=O)NC(=O)OCCc1ccccc1)C(C)(C)C [Entry 40] | 4 | 570 |  |  |
| CCC(CC)NC(=O)C[C@@H](C(=O)NC[C@@H](O)[C@H](Cc1ccccc1)NC(=O)[C@H](CC(N)=O)NC(=O)c1ccnc2ccccc12)C(C)(C)C [Entry 15] | 9 | 450 |  |  |
| Cc1cccc(C)c1NC(=O)C[C@@H](C(=O)NC[C@@H](O)[C@H](Cc1ccccc1)NC(=O)COc1c(C)cccc1C)C(C)(C)C [Entry 73] | 2.6 | 620 |  |  |
| CCC(CC)NC(=O)C[C@@H](C(=O)NC[C@@H](O)[C@H](Cc1ccccc1)NC(=O)[C@@H](NC(=O)COc1ccccc1)[C@@H](C)O)C(C)(C)C [Entry 41] | 3 | 170 |  |  |
